This note sets out measurements from publication PMC7249060, “The Antiproliferative Effects of Flavonoid MAO Inhibitors on Prostate Cancer Cells” (Molecules, 2020).

The subject of series [1] is LNCaP cells. Briefly: Antiproliferation screen assay, resazurin, 72 h. The series is classed as cell-based, human. To be noted: 50 μM. As to the method: (§1) In this screen, we examined the growth inhibitory effects of all synthesized KKRs on the three human PCa cell lines LNCaP, DU145, and PC3. The antiproliferative clinical drug TAX of 0.25 μM was used as a positive control. Additionally, different standards of MAO-Is and FLUT were tested for their effect on the LNCaP cells. Briefly, the procedures and materials used were the same as for the viability assay except for the following—cultured cells were seeded at 10,000 cells/175-µL/well related experimental media, and the resazurin solution was added after 72 h of incubation with the compounds of 50 μM each.
Background: The colour change of resazurin is a common sign of viable cells or microbes.

Series [2] has as its system DU145 cells. Nature of the series: Antiproliferation screen assay, resazurin, 72 h. The series is classed as cell-based, human. To be noted: 50 μM. The protocol: as §1
Series [3] concerns PC3 cells. Briefly: Antiproliferation screen assay, resazurin, 72 h. The following applies: 50 μM. The series is classed as cell-based, human. As to the method:
as §1

The test system of series [4] is LNCaP cells. Briefly: Viability screen assay, resazurin, 24 h. The series is classed as cell-based, human. To be noted: 50 μM, 90% viability as margin of cytotoxicity. The protocol: We examined the cytotoxic effects of all 20 synthesized KKRs on the three human PCa cell lines LNCaP, DU145, and PC3, after a 24 h exposure period. Non-toxic TAX was used for comparison. Briefly, cultured cells were seeded in black transparent bottom 96-well microplates at 50,000 cells/175-µL/well in experimental media (RPMI1640 for LNCaP, EMEM for DU145, and DMEM/F12K for PC3), supplied with 5% FBS and 1% P/S. Wells of media without cells were considered blanks and negative controls. The plates were incubated overnight at 37 °C in 5% CO2 to allow cell attachment. For each compound, a working solution of 8X KKR in sterile […] HEPES in HBSS pH buffer of 7.4 was prepared for a final concentration of 50 μM each. The three attached cell types were treated immediately with the related buffer being added to the control wells. A sterile fluorescence-based solution of the resazurin reagent of 0.5 mg/mL in HBSS was prepared. After 24 h, the cells were exposed to 15% v/v of the sterile resazurin reagent, and the plates were re-incubated for 4.5 h to allow redox reaction. All plates were read under 530/590-nm excitation/emission wavelengths using Bio-Tek Synergy HTX Multi-reader as a microplate fluorescence reader.

The subject of series [5] is LNCaP cells. Briefly: Antiproliferation dose-response assay for 72 h. The series is classed as cell-based. To be noted: Homo sapiens, mean ± SEM of two experiments, read-out: antiproliferative IC50. As to the method:
(§2) For the top effective KKRs, along with TAX, their potency to reduce the affected PCa cell line growth in a dose-dependent manner was determined using the resazurin fluorescence assay. We followed the same protocols and materials used for the antiproliferation screen assays (Section 4.3.2), with the following modifications. The maximum final KKR concentration used was 40 μM. The concentration of 8X of each KKR working solution in 1% HEPES 7.4 was serially diluted in a 3:1 ratio, compound to buffer, respectively. Each data set was collected from ten data points of 3.7–40 μM range. The control had the KKR substituted with buffer. The related IC50 averages were analyzed for the compounds that affected the cell lines the most.

Series [6] deals with DU145 cells. Nature of the series: Antiproliferation dose-response assay for 72 h. Format: cell-based. To be noted: Homo sapiens, DU-145; DU145, 72 h, mean ± SEM of two experiments; read-out: antiproliferative IC50. As to the method:
as §2

In series [7] the test system is PC3 cells. Briefly: Antiproliferation dose-response assay for 72 h. Format: cell-based. The following applies: Homo sapiens, PC-3; PC3, 72 h, mean ± SEM of two experiments; read-out: antiproliferative IC50. The protocol:
as §2

The target in a further series is T1, hMAO-A (Homo sapiens, UniProt P21397).
T1 construct: purchased Sigma-Aldrich Co. (St. Louis, MO, USA)
T1 sequence (P21397 1-527): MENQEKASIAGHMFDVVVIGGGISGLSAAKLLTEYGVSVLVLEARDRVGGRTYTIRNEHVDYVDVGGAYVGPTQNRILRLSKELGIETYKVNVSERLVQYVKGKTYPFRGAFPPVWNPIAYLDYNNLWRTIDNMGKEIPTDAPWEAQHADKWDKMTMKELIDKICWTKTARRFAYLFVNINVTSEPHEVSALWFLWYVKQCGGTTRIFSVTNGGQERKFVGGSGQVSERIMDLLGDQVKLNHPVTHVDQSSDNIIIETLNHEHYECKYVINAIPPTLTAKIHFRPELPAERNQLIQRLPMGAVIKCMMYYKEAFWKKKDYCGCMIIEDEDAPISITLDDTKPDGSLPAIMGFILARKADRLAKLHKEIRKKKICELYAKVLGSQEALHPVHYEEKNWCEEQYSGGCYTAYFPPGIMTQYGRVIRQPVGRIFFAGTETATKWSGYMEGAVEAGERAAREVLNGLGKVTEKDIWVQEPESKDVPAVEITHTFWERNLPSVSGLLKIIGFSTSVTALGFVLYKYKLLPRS
Nature of the series: MAO-Glow luminescence screen of KKRs at 100 μM. The series is classed as biochemical. The following applies: 100 μM screen. The protocol:
(§3) We optimized our control hMAO-A and hMAO-B isozymes reactions in the incubation condition, at 37 °C for 1 h, by performing a luminescence assay using the MAO-Glow™ kit. Upon arrival, each isozyme was diluted with 10 mM HEPES in cold HBSS of pH 7.4. Afterward, the diluted isozymes were kept at −80 °C until use. Enzyme concentration optimization was accomplished by testing ten 2X serially diluted hMAO-A and hMAO-B concentrations for a final range of 7.00–0.01 U/mL each. The tested isozymes were incubated with LDS of 40 and 4 μM for isozymes A and B, respectively (recommended by Promega protocol), and a maximum of used DMSO of 1% final concentration. Different isozyme concentrations reactions at their initial velocities were monitored. Consequently, their required concentrations were defined to be 0.44 U/mL each. Additionally, ten different LDS concentrations, ranging from 0.3–150 μM, were monitored for optimizing and validating the linearity of the initial reaction for the hMAO-A mode of action. Subsequently, we chose a saturated substrate of 75 μM as a required concentration for the hMAO-A enzyme kinetic reactions.
(§4) The inhibitory effects of the synthesized KKRs of hMAO-A and B were tested by measuring the decrease in arbitrary light units (ALU) signal produced by the optimized isozymes using the MAO-Glow™ Assay at 37 °C. In this assay, DMSO stock for each KKR compound was diluted with a reaction buffer of pH 7.4 to make a 4X working solution for a maximum final concentration of 100 μM and ≤1% DMSO. The experiments were run in the absence and presence of 4X the miscellaneous standards of MAO-BIs (DEP, PARG, and SAF) and MAO-AIs (PIRL and CLORG), with similar concentrations. In white opaque 96-well microplates, 12.5 μL of each compound was plated at RT and was followed by 25 μL of 2X cold hMAO-A or hMAO-B, for a final concentration of 0.44 U/mL. A related buffer substituted each isozyme to make the blank wells and substituted each compound to make the negative control wells. Following this, we added 12.5 μL of 4X LDS to make a final substrate concentration of 40- and 4-μM for hMAO-A and hMAO-B, respectively. All screen plates were incubated at 37 °C for 60 min. The plates of 50 μL/well were then taken out from the incubator, and their reactions were stopped by an equal volume of 50 μL of reporter luciferin detection reagent (RLDR). After 30 min, the luminescence signals for all plates were read on a Synergy HTX Multi-reader from Bio-Tek (Winooski, VT, USA).

A further series has as its target T2, hMAO-B (Homo sapiens, UniProt P27338).
T2 construct: purchased Sigma-Aldrich Co. (St. Louis, MO, USA)
T2 sequence (P27338 1-520): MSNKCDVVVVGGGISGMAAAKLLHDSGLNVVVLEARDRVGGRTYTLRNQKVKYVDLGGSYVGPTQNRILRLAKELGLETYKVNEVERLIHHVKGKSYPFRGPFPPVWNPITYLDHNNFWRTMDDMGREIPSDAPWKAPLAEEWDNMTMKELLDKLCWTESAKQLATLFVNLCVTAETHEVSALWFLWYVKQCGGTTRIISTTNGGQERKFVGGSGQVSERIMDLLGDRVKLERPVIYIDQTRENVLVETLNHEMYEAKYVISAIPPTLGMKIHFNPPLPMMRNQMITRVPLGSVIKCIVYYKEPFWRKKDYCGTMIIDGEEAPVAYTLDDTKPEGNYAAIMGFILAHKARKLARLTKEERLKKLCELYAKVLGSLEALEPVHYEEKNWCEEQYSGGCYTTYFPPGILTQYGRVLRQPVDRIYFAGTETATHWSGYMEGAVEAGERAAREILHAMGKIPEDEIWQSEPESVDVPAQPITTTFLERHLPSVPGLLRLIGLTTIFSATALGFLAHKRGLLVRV
Briefly: MAO-Glow luminescence screen of KKRs at 100 μM. Format: biochemical. The following applies: 100 μM screen. The protocol: as §3, §4

As for `COc1cc(O)c(C(=O)/C=C/c2cc(OC)c(OC)c(OC)c2)c(OC)c1` [KKR17, (E)-1-(2-hydroxy-4,6-dimethoxyphenyl)-3-(3,4,5-trimethoxyphenyl)prop-2-en-1-one], the “antiproliferative effect in screen” value in the series with LNCaP cells [1] is “top five KKRs that kept standing out with antiproliferative effects”; in the series with DU145 cells [2], “top effective”; in the series with PC3 cells [3], “effective against all investigated cell lines, including the metastatic PC3”. For the same molecule, the “cytotoxicity / cell viability” value with LNCaP cells [4] is on record as “affected the LNCaP cells”. Further, the figures for the IC50 in the series on LNCaP cells [5], in the series with DU145 cells [6] and in the series on PC3 cells [7] were 21 ± 1 µM, 9 ± 0.5 µM and 34 ± 1 µM, respectively. Also, the “MAO inhibitory property in MAO screen” value at hMAO-A and at hMAO-B was “did not have MAO inhibitory properties” each time.

The term IC50 denotes the concentration at which inhibition is half-maximal.
